The values that follow come from ChEMBL document CHEMBL1128022, “Potent and selective inhibitors of gelatinase-A 2. carboxylic and phosphonic acid derivatives” (Bioorg Med Chem Lett, 1994).

One experiment has as its target T1, Interstitial collagenase (Homo sapiens, UniProt P03956).
T1 sequence (P03956 whole entry): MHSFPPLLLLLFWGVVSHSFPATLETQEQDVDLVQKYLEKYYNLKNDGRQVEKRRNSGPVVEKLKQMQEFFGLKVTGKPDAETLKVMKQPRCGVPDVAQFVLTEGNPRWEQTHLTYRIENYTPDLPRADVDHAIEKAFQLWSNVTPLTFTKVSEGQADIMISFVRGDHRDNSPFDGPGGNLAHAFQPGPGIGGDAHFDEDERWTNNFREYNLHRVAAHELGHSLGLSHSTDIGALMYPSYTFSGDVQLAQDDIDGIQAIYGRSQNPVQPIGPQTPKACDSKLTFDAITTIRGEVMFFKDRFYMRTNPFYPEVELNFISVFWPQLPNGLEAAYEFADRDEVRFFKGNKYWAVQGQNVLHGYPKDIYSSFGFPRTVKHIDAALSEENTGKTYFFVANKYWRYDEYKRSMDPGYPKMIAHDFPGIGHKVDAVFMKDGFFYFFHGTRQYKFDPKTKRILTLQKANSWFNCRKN
Nature of the experiment: Inhibition of the Collagenase enzyme was determined from purified NSO cells.

The next experiment concerns the target Stromelysin-1 (Homo sapiens, UniProt P08254). The experiment in a line: Inhibition of the Stromelysin enzyme was determined from purified NSO cells.
Experiment [1] addresses 72 kDa type IV collagenase (Homo sapiens, UniProt P08253). Nature of the experiment: Inhibition of the Gelatinase-A enzyme was determined from purified NSO cells.

The term Ki denotes a dissociation constant, usually derived from enzyme kinetics or from competition with a known ligand. A high value points to weaker binding.

Each structure is given as a SMILES string.

72 kDa type IV collagenase, sequence (P08253 whole entry): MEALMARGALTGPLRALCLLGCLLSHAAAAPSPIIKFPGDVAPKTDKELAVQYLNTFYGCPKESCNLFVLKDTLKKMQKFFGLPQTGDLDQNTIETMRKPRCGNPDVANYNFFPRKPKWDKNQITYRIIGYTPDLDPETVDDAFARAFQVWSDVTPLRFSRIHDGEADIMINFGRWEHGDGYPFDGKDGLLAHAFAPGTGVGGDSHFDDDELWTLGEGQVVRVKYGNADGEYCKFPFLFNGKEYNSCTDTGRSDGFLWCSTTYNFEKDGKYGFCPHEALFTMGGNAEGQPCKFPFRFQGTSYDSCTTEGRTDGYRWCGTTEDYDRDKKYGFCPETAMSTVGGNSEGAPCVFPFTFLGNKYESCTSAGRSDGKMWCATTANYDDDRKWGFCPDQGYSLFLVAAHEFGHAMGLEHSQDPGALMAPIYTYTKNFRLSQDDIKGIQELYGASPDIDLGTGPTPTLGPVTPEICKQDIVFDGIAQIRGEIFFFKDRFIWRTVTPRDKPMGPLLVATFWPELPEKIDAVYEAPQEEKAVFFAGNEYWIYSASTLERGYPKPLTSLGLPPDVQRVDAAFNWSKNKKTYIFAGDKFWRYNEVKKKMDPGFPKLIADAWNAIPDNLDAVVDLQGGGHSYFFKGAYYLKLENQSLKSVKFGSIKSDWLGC
Stromelysin-1, sequence (P08254 whole entry): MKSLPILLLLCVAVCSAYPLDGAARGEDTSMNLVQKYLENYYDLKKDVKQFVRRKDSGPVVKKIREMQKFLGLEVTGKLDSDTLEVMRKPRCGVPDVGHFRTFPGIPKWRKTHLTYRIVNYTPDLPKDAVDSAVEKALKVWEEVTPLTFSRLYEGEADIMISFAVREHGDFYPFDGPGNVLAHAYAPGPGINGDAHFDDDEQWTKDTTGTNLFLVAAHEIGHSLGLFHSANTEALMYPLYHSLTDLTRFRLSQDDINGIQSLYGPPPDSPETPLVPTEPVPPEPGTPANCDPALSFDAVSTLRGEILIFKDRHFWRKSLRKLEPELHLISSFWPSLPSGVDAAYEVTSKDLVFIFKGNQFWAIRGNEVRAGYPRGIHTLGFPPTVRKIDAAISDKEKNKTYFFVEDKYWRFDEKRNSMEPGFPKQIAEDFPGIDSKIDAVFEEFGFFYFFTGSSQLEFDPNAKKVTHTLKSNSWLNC

As for `Cc1ccc(CCC[C@H](CC(=O)O)C(=O)N[C@@H](CC2CCCCC2)C(=O)NCCCCN2CCOCC2)cc1`, the Ki was 55000 nM on Interstitial collagenase, 358 nM at Stromelysin-1 and 10.3 nM in experiment [1].
On the same counts, the results for `Cc1ccc(CCC[C@H](CC(=O)O)C(=O)N[C@@H](CC2CCCCC2)C(=O)NCCc2ccccc2)cc1` are 22100 nM, 472 nM and 1 nM.
On the same counts, the results for `O=C(O)CCNC(=O)[C@H](CC1CCCCC1)NC(=O)[C@H](CCCc1ccccc1)CP(=O)(O)O` are 22100 nM, 952 nM and 46.5 nM.
Take `O=C(C[C@@H](CCCc1ccccc1)C(=O)N[C@@H](CC1CCCCC1)C(=O)NCCc1ccccc1)NO`: the Ki in experiment [1] turned out to be 0.06 nM.
In the case of `COc1ccc(CCC[C@H](CC(=O)O)C(=O)N[C@@H](CC2CCCCC2)C(=O)NCCc2ccc(S(N)(=O)=O)cc2)cc1`, the results for the Ki (at Interstitial collagenase; on Stromelysin-1; in experiment [1]) were 10000 nM, 1110 nM and 1.83 nM, respectively.
As for `Cc1ccc(CCC[C@H](CC(=O)O)C(=O)N[C@@H](CC2CCCCC2)C(=O)NCCc2ccc(S(N)(=O)=O)cc2)cc1`, the Ki on Interstitial collagenase came out at 47800 nM; at Stromelysin-1, 384 nM; in experiment [1], 0.9 nM.
For the molecule `NC(=O)[C@H](CC1CCCCC1)NC(=O)[C@H](CCCc1ccccc1)CC(=O)O`, the Ki on Interstitial collagenase is 100000 nM; at Stromelysin-1, 3120 nM; in experiment [1], 123 nM.
As to `O=C(N[C@@H](CC1CCCCC1)C(=O)NCCc1ccccc1)[C@H](CCCc1ccccc1)CP(=O)(O)O`, the results for the Ki (on Interstitial collagenase; at Stromelysin-1; in experiment [1]) were 25000 nM, 701 nM and 18.9 nM, respectively.
The corresponding values for `Cc1ccc(CCC[C@H](CC(=O)O)C(=O)N[C@@H](CC2CCCCC2)C(=O)NCCC(=O)O)cc1` are 100000 nM, 321 nM and 3.82 nM.
On the same counts, the results for `Cc1ccc(CCC[C@H](CP(=O)(O)O)C(=O)N[C@@H](CC2CCCCC2)C(=O)NCCc2ccccc2)cc1` (stereo in doubt; form 1) are 100000 nM, 21200 nM and 366 nM.
On to `O=C(O)C[C@H](CCCc1ccccc1)C(=O)N[C@@H](CC1CCCCC1)C(=O)NCCc1ccccc1`, for which the affinity at Stromelysin-1, expressed as Ki, was 20000 nM.
With `NC(=O)CCCNC(=O)[C@H](CC1CCCCC1)NC(=O)[C@H](CCCc1ccccc1)CC(=O)O`, the Ki on Interstitial collagenase worked out at 28400 nM; on Stromelysin-1, 1060 nM; in experiment [1], 3.06 nM.
`NS(=O)(=O)c1ccc(CCNC(=O)[C@H](CC2CCCCC2)NC(=O)[C@H](CCCc2ccccc2)CC(=O)O)cc1`: the Ki at Interstitial collagenase amounted to 40200 nM; at Stromelysin-1 it was 952 nM; in experiment [1], 6.4 nM.
Turning to `CC(C)Cc1ccc(CCC[C@H](CC(=O)O)C(=O)N[C@@H](CC2CCCCC2)C(=O)NCCc2ccccc2)cc1`, the Ki was more than 10000 nM on Interstitial collagenase, more than 10000 nM at Stromelysin-1 and 157 nM in experiment [1].
For `NS(=O)(=O)c1ccc(CCNC(=O)[C@H](CC2CCCCC2)NC(=O)[C@H](CCCc2ccc(Cl)cc2)CC(=O)O)cc1`, the Ki on Interstitial collagenase is 55000 nM; at Stromelysin-1, 358 nM; in experiment [1], 1.03 nM.
On the same counts, the results for `COC(=O)CCNC(=O)[C@H](CC1CCCCC1)NC(=O)[C@H](CCCc1ccc(C)cc1)CC(=O)O` are 41400 nM, 353 nM and 1.17 nM.
The corresponding values for `O=C(N[C@@H](CC1CCCCC1)C(=O)NCCN1CCOCC1)[C@H](CCCc1ccccc1)CP(=O)(O)O` are 100000 nM, 8400 nM and 812 nM.
Turning to `Cc1ccc(CCC[C@H](CP(=O)(O)O)C(=O)N[C@@H](CC2CCCCC2)C(=O)NCCc2ccccc2)cc1` (stereo in doubt; form 2), the results for the Ki (on Interstitial collagenase; at Stromelysin-1; in experiment [1]) were 17000 nM, 277 nM and 2.5 nM, respectively.
